US12129313B2, “Anti-inflammatory use of peptide” (ENLITISA (SHANGHAI) PHARMACEUTICAL CO., LTD, priority 2017, dated 2024)
Where no end group is shown, it is not given here. [ ]: non-standard residue; d: D form. Dopa = N[C@@H](Cc1ccc(O)c(O)c1)C(=O)O; Hyp = O=C(O)[C@@H]1C[C@@H](O)CN1

Tests used:
C57BL/6 mice [1] = assay: Air pouch model (carrageenan): exudate volume, pouch wall weight, exudate cell count; type: in vivo; design: Neutrophil (total cell count and classification) / Monocyte (total cell count and classification): unit not given here; conditions: for Pouch Wall Weight / Exudate volume: mean ± SD, 24 hours after carrageenan; for Exudate volume: injected into air pouch, per mouse: Positive 200 μg, M1-B/M1-A/Test 1.5 mg, M2-B/M2-A 4.5 mg, timing 1 hour (Positive, -B, Test) or 6 hours (-A), Table 1
Method: Healthy adult male C57BL/6 mice weighing between 20 and 30 g were supplied by Nanjing Biomedical Research Institute (NBRI) of Nanjing University, China. Prior to any experiments being conducted, mice were housed under standardized conditions (at a constant temperature or 22±2° C., with alternating 12 hour periods of light and darkness), and were fed on a standard mouse diet with water, for about a week.
General anesthesia was induced using intraperitoneal 3% chloral hydrate (Sinopharm Chemical Reagent Co., Ltd., Shanghai, China); 1 mL/10 g of body weight). The hair of the entire dorsum was shaved and depilated 1 day before sterile air injection.
(§1) Air pouches were produced by subcutaneous injection of sterile air (5 mL) into the intrascapular area of the mice. After three days, another injection of air (3 mL) was performed to maintain the pouches. In order to induce acute inflammation, three days after this final injection, animals received an injection of sterile carrageenan solution (CP Kelco, Taixing, Jiangsu Province, China; 1%, 0.5 mL; produced by adding 0.1 g of carrageenan powder into a beaker containing 10 mL of 0.9% saline solution and stirring). Mice were pre-treated with test samples or vehicle 1 hour before and 23 hours after the carrageenan injection into the subcutaneous air pouch. Animals were sacrificed 24 hours after the carrageenan injection.
The cavity was washed with 4 mL of sterile phosphate buffer solution (pH 7.4; prepared by dissolving 4 g of NaCl, 0.1 g of KCl, 1.749 g of Na2HPO4.12H2O and 0.1 g of KH2PO4 in ultrapure water, adjusting the pH to 7.4 with HCl and diluting with water to a total volume of 500 mL).
(§2) Exudates were collected and volumes were quantified. The total number of cells was determined with a haematocytometer (ADVIA 2120 Hematology System, Siemens Healthineers). The exudates were centrifuged at 3000 rpm for 10 minutes at 4° C., and the supernatants were collected and stored at −20° C. for ELISA analysis using standard ELISA test kits (Biolegend™ from Dakewe Biotech Co., Beijing, China or Abcam™, Abcam (Shanghai) Trading Co. Ltd, China) and an ELISA reader (SH-1000 Hitachi, Japan) for tissue necrosis factor alpha (TNF-α), interleukin 1 beta (IL-1β), interleukin 6 (IL-6), interleukin 10 (IL-10), prostaglandin E2 (PGE2), interferon gamma (IFN-γ) and 5-hydroxytryptamine (5-HT; serotonin).
After conducting some preliminary experiments to validate the model, an experiment was conducted in which mice were treated by administering test samples or vehicle in accordance with Table 1 below.
In Table 1, the M1-B, M2-B, M1-A and M2-A samples are MAP (Mefp-1) solutions of specified concentrations administered at different times relative to the carrageenan injection, as specified in the table. The solutions were prepared as follows. Blue mussels were harvested in the coastal area of Shandong Province, China. Mussel feet were collected, cut into small pieces and homogenized in an extraction buffer comprising 5% acetic acid in 4 mol/L of aqueous urea. The crude extracts were collected after centrifuging and then purified by liquid chromatography. The purified protein (semi-finished product; concentration 8 mg/mL; purity as measured by HPLC 91.72%; pH 4.2) was stored at 0° C. The solutions that were employed below were prepared by adding saline solution to this semi-finished product to obtain the concentrations described in Table 1.
Also in Table 1, “Test” is MAP Peptide, which was obtained from Innovagen AB, Sweden. The peptide was synthesized according to the relevant Mefp-1 amino acid sequence. The peptide powder was stored at −20° C. and dissolved in saline water at a concentration of 3.0 mg/mL, pH 5.5.
Dexamethasone (MedChemExpress, Shanghai, China) was obtained in powder form and dissolved in ultrapure water to obtain a solution with a concentration as described in Table 1.
All the substances listed in Table 1 were administrated topically by directly injecting into the air pouches.

C57BL/6 mice [2] = assay: Air pouch model: histology scoring of pouch wall (HE stained slices); type: in vivo; design: key to Inflammation score / Edema Score / Motility score: 1 = mild, 2 = moderate, 3 = severe; conditions: for Motility score: density of neutrophils, 1 to 3 points; for Motility score / Edema Score / Inflammation score: doses and timing per Table 1; for chronic inflammatory cell infiltration of the pouch wall / edema of the pouch wall / neutrophil infiltration of the pouch wall: histological description in words; for Edema Score / Inflammation score: pouch wall histology; for Edema Score: 1 mild to 3 most severe; for Inflammation score: 1 mild to 3 severe; for Sum: sum of inflammation, edema and motility scores
Method: as §1
Skin biopsies were taken from the air pouches. A part of the biopsy was fixed in formalin (produced by adding ultra pure water to 50 mL of a 40% formaldehyde solution (Nanchang Rain Dew Experimental Equipment Co., Ltd., Nanchang, […] Provence, China) up to a total volume of 500 mL) and analyzed by histological embedding in paraffin wax, sectioning and staining.
The histological specimens were analysed and an inflammation score, a motility score, an edema score and […] were estimated as follows.
The HE stained slices were observed under an optical microscope and were scored (1, 2 or 3 points) according to the perceived inflammation level (in cases showing only a small amount of inflammatory cells scattered in the area—1 point (mild); in cases where many inflammatory cells were observed—2 points (moderate); and, in cases with diffuse infiltration—3 points (severe)). A similar scoring system was employed for edema levels (3 points for most severe and 1 point for mild) after overall observation. Motility scores represented the density of neutrophils, which employed the same methodology as that employed for inflammatory cells.

TNF-α = assay: Air pouch model: ELISA of exudate for TNF-α; type: in vivo, mice; conditions: ±SD, doses and timing per Table 1
Method: as §1, with “Animals were sacrificed 24 hours after the carrageenan injection.” left out
as §2, with “serotonin). […]” for “serotonin).”

IL-6 = assay: Air pouch model: ELISA of exudate for IL-6; type: in vivo, mice; conditions: ±SD, doses and timing per Table 1
Method: as §1
as §2, with “The total number of cells was determined with a haematocytometer (ADVIA 2120 Hematology System, Siemens Healthineers).” left out

IFN-γ = assay: Air pouch model: ELISA of exudate for IFN-γ; type: in vivo, mice; conditions: ±SD, doses and timing per Table 1
Method: as §1, with “Animals were sacrificed 24 hours after the carrageenan injection.” left out
as §2, with “serotonin). […]” for “serotonin).”

C57BL/6 mice [3] = assay: Air Pouch Model II: histology scoring; type: in vivo
Method: (§3) Essentially the same procedure as that described in Example 1 above was followed, to treat mice by administering test samples or vehicle in accordance with Table 6 below.
(§4) In this example, MAP Peptide powder was dissolved in saline water at a concentration of 0.6 mg/mL at pH 5.5. Then 0.5 mL of the solution was injected into each air pouch in the group.

TNF-α, IL-6, and IL-1β = assay: Air Pouch Model II: ELISA of exudate; type: in vivo, mice; conditions: 300 μg/mouse into air pouch; FIGS. 2A-2C
Method: as §3, §4
In this example, ELISA analysis was carried out for TNF-α, IL-6, and IL-1β, which are shown graphically in FIGS. 2A-2C, respectively.

C57BL/6 mice [4] = assay: Acute wound model: wound contraction ratio; type: in vivo
Method: 6-8 weeks old male C57BL/6 mice were supplied by Changzhou Ovens Experimental Animal Co. Ltd (Changzhou, Jiangsu Province, China). Prior to any experiments being conducted, mice were housed under standardized conditions (at a constant temperature of 22±2° C., with alternating 12 hour periods of light and darkness), and were fed on a standard mouse diet with water, for about a week.
General anesthesia was induced using intraperitoneal 3% chloral hydrate (1 mL/10 g of body weight). The hair on the back was shaved by a baby hair shaver and depilated with cream. The skin area was wiped and sterilized with 75% alcohol twice.
An EMS skin biopsy punch (Electron Microscopy Sciences, P.O. Box 550, 1560 Industry Road, Hatfield, PA, USA) with 8 mm diameter was used to make a round wounds on each side of the midline of the back. The full thickness of skin was removed and the depth of the wound reached the fascia. Wounds were left open without a suture.
Different drugs were administrated topically at 50 μL/wound, once daily from Day 0 to Day 12, as show in Table 8 below. […] The model group was given same amount of normal saline. There were 12 mice in each group.
For this experiment, MAP Peptide was obtained from GL Biochem (Shanghai) Ltd. The peptide powder was stored at −20° C. and dissolved in saline at a concentration of 33 μg/m L.
20 μL of respective solutions were applied onto each wound surface in the relevant groups.
Wounds were dressed with gauze and transparent dresser after drug administration. Photographs were taken for each wound every other day from Day 0. Photos were scanned into a computer, and wound areas calculated using ImageJ image analysis software (National Institutes of Health, […]).
Photographs were taken for each wound every other day from Day 0. Wound healing was calculated by the wound contraction ratio (WCR) WCR=(A0−At)/A0×100% where A0 and At refer to the initial area at Day 0 and the wound area at the date of measurement (time t), respectively.

[5] = test system: polymorphous light eruption; assay: MAP Peptide liquid spray in subjects with polymorphous light eruption; type: in vivo; conditions: 1.5 mg/mL spray in WFI
Method: MAP Peptide was dissolved in water for injection (WFI; prepared from TC-RO-0.25T/h-2 water treatment system, Yangzhou […] Treatment Devices & Engineering Co., Ltd., Yangzhou, China). The concentration of the solution was 1.5 mg/mL. The solution was loaded into a spray device. Enrolled subjects in the study were diagnosed with polymorphous light eruption (an inflammatory condition characterized by a rash caused by sun exposure in people who have developed sensitivity to sunlight). Prior to treatment, the patients presented symptoms including skin redness, papules, itching and swelling. Subjects were required to use the liquid spray in the morning and the evening after facial cleansing.

[6] = air pouch exudate, doses and timing per Table 1
[7] = 300 μg/mouse into air pouch, 1 hour before carrageenan
[8] = ±SD, topical once daily, MAP 5 μg/wound, MAP Peptide 6.57 μg/wound

Compound | Leukocyte (total cell count and classification) (C57BL/6 mice [1]; [6]) | Pouch Wall Weight (C57BL/6 mice [1]; doses and timing per Table 1) | Exudate volume (C57BL/6 mice [1]) | Motility score (C57BL/6 mice [2]) | chronic inflammatory cell infiltration of the pouch wall (C57BL/6 mice [2]) | edema of the pouch wall (C57BL/6 mice [2]) | neutrophil infiltration of the pouch wall (C57BL/6 mice [2]) | Edema Score (C57BL/6 mice [2]) | Inflammation score (C57BL/6 mice [2]) | Sum (C57BL/6 mice [2]) | TNF-α (TNF-α) | IL-6 (IL-6) | IFN-γ (IFN-γ) | also measured
C[C@@H]1C[C@H]2[C@@H]3CCC4=CC(=O)C=C[C@]4(C)[C@@]3(F)[C@@H](O)C[C@]2(C)[C@@]1(O)C(=O)CO [Positive, Dexamethasone, reference compound] | 3.49e+06 mL⁻¹ | 0.63 ± 0.09 g | 3.3 ± 0.15 mL | 0.67 | moderate chronic inflammatory cell infiltration | moderate interstitial edema | a small amount of neutrophil infiltration | 1.67 | 1.83 | 4.17 | 65.08 ± 7.70 | 428.05 ± 267.27 | 388.83 ± 130.02 | –
AKPSY[Hyp][Hyp]T[Dopa]K [MAP Peptide] | 4.74e+06 mL⁻¹ | 0.60 ± 0.17 g | 3.43 ± 0.06 mL | 1.00 | mild to moderate chronic inflammatory cell infiltration | interstitial edema | a small amount of neutrophil infiltration | 1.00 | 1.67 | 3.67 | 58.49 ± 28.72 | 132.63 ± 137.34 | 377.31 ± 198.68 | Monocyte (total cell count and classification) (C57BL/6 mice [1]; [6]): 81.54 ×10^6; Neutrophil (total cell count and classification) (C57BL/6 mice [1]; [6]): 296.32 ×10^6; Inflammation score (C57BL/6 mice [3]; 300 μg/mouse (0.6 mg/mL, 0.5 mL) into air pouch, 1 hour before carrageenan): 1.6; Edema Score (C57BL/6 mice [3]; [7]): 1.8; Fibroplastic proliferation score (C57BL/6 mice [3]; [7]): 0.2; Sum (C57BL/6 mice [3]; 300 μg/mouse, printed sums equal inflammation + edema scores only): 3.4; anti-inflammatory effects (ELISA for TNF-α, IL-6, IL-1β) (TNF-α, IL-6, and IL-1β): very strong anti-inflammatory effects; improvement rate, (WCR MAP Peptide Group−WCR MAP Group)/WCR MAP Group×100% (C57BL/6 mice [4]; Day 6, versus MAP group): 52.96%; effect on wound healing compared with MAP (C57BL/6 mice [4]; acute wound model, Table 9): stronger effect on wound healing than MAP; wound contraction ratio (WCR), Day 2 (C57BL/6 mice [4]; [8]): 6.99 ± 2.02%; wound contraction ratio (WCR), Day 4 (C57BL/6 mice [4]; [8]): 18.65 ± 1.87%; wound contraction ratio (WCR), Day 6 (C57BL/6 mice [4]; [8]): 42.91 ± 0.57%; wound contraction ratio (WCR), Day 8 (C57BL/6 mice [4]; [8]): 48.73 ± 1.65%; wound contraction ratio (WCR), Day 0 (C57BL/6 mice [4]; ±SD, topical once daily, MAP 5 μg/wound, MAP Peptide 6.57 μg/wound, 8 mm full thickness wound): 0.00 ± 0%; erythema alleviation efficiency compared to MAP spray of same concentration [5]: much more rapid erythema alleviation efficiency; malaise [5]: inhibited malaise; subjects whose erythema completely disappeared in a few hours [5]: 50%; tested subjects with itch completely relieved within 1 minute [5]: 50%; time to alleviation of most of the observed erythema [5]: ≤ 1 min; time to relief of itching ([5]; morning and evening): ≤ 1 min
